Test results published in US20240025919A1, “AZA-TETRACYCLIC OXAZEPINE COMPOUNDS AND USES THEREOF” (Genentech, Inc., priority 2022, published 2024).
Like-named read-outs stand apart in the source and are kept apart here.

How the values were obtained:
KRAS WT = KRAS WT (Homo sapiens (Human), UniProt P01116); assay: KRAS WT Biochemical Assay, BODIPY-GDP Exchange TR-FRET (Example 501; 3 nM KRAS WT, 3 nM SOS1, 60-minute incubation)
Summary of the method: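 SOS1-mediated exchange assay: 3 nM biotin-KRAS WT with terbium-streptavidin, started with 3 nM SOS1 and 300 nM BODIPY-GDP, HEPES pH 7.5 with MgCl2. TR-FRET (520/490 nm) read after 60 min; normalized to DMSO and full-inhibition control, IC50 from 4-parameter Hill fit.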

KRAS G12D = KRAS G12D (Homo sapiens (Human), UniProt P01116, G12D); assay: KRAS G12D LoEnz Biochemical Assay, BODIPY-GDP Exchange TR-FRET (SOS1-mediated nucleotide exchange); conditions: read-out: KRas (G12D) GDP HTRF IC50
Chain of KRAS G12D (P01116-2 other isoform, or with tags, fused parts or gaps G12D): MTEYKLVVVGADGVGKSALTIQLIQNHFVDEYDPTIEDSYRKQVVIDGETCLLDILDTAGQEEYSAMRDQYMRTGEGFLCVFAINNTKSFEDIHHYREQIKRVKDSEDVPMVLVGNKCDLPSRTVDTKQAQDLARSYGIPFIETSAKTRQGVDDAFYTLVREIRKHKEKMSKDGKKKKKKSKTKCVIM

[1] = read-out: KRas(wt) GDP HTRF IC50

Chain of KRAS WT (P01116-2 other isoform, or with tags, fused parts or gaps): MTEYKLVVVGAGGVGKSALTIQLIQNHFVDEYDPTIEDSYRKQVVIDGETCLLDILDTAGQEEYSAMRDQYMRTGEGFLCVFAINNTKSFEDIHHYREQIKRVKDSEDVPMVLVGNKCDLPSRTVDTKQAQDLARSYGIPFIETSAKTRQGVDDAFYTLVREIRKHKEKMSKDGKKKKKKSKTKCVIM

| SMILES | IC50 (KRAS WT; read-out: KRas HTRF IC50) [nM] | IC50 (KRAS G12D) [nM] | IC50 (KRAS WT; [1]) [nM] |
| --- | --- | --- | --- |
| Cc1cc(N)c(F)c(-c2nc3c4c(nc(OCC5(CN6CCOCC6)CC5)nc4c2F)N2C[C@H]4CC[C@H](N4)[C@H]2[C@H](C)O3)c1C(F)(F)F [Compound 226, 2-Fluoro-3-((5S,5aS,6S,9R)-1-fluoro-5-methyl-12-((1-(morpholinomethyl)cyclopropyl)methoxy)-5a,6,7,8,9,10-hexahydro-5H-4-oxa-3,10a,11,13,14-pentaaza-6,9-methanonaphtho[1,8-ab]heptalene-2-yl)-5-methyl-4-(trifluoromethyl)aniline] | 8.11 | 0.4 | – |
| Cc1nc(N)cc(-c2nc3c4c(nc(OCC5(CN6CCO[C@H](C)C6)CC5)nc4c2F)N2C[C@H]4CC[C@H](N4)[C@H]2[C@H](C)O3)c1C(F)(F)F [Compound 213, 4-((5S,5aS,6S,9R)-1-Fluoro-5-methyl-12-((1-(((R)-2-methylmorpholino)methyl)cyclopropyl)methoxy)-5a,6,7,8,9,10-hexahydro-5H-4-oxa-3,10a,11,13,14-pentaaza-6,9-methanonaphtho[1,8-ab]heptalen-2-yl)-6-methyl-5-(trifluoromethyl)pyridin-2-amine] | 13.6 | 0.31 | – |
| COC1(C(F)F)CN(CC2(COc3nc4c5c(nc(-c6cc(N)nc(C)c6C(F)(F)F)c(F)c5n3)O[C@@H](C)[C@@H]3[C@@H]5CC[C@H](CN43)N5)CC2)C1 [Compound 271, 4-((5S,5aS,6S,9R)-12-((1-((3-(difluoromethyl)-3-methoxyazetidin-1-yl)methyl)cyclopropyl)methoxy)-1-fluoro-5-methyl-5a,6,7,8,9,10-hexahydro-5H-4-oxa-3,10a,11,13,14-pentaaza-6,9-methanonaphtho[1,8-ab]heptalene-2-yl)-6-methyl-5-(trifluoromethyl)pyridin-2-amine] | 56.4 | 0.51 | – |
| Cc1nc(N)cc(-c2nc3c4c(nc(OCC5(CN6CC7COCC7C6)CC5)nc4c2F)N2C[C@H]4CC[C@H](N4)[C@H]2[C@H](C)O3)c1C(F)(F)F (stereo partly drawn) [Compound 205, 4-((5S,5aS,6S,9R)-1-Fluoro-5-methyl-12-((1-((tetrahydro-1H-furo[3,4-c]pyrrol-5(3H)-yl)methyl)cyclopropyl)methoxy)-5a,6,7,8,9,10-hexahydro-5H-4-oxa-3,10a,11,13,14-pentaaza-6,9-methanonaphtho[1,8-ab]heptalen-2-yl)-6-methyl-5-(trifluoromethyl)pyridin-2-amine] | 8.61 | 3.39 | – |
| Oc1cc(-c2nc3c4c(nc(OC[C@@]56CCCN5C[C@H](F)C6)nc4c2F)N2C[C@H]4CC[C@H](N4)[C@H]2CO3)c2c(F)cccc2c1 [Compound 1, 5-Fluoro-4-((5aS,6S,9R)-1-fluoro-12-(((2R,7aS)-2-fluorotetrahydro-1H-pyrrolizin-7a(5H)-yl)methoxy)-5a,6,7,8,9,10-hexahydro-5H-4-oxa-3,10a,11,13,14-pentaaza-6,9-methanonaphtho[1,8-ab]heptalen-2-yl)naphthalen-2-ol] | – | 0.12 | 8.12 |
| C[C@@H]1Oc2nc(-c3c(C(F)(F)F)ccc(N)c3F)c(F)c3nc(OC[C@@]45CCCN4C[C@H](F)C5)nc(c23)N2C[C@H]3CC[C@H](N3)[C@@H]12 [Compound 35, 2-fluoro-3-((5S,5aS,6S,9R)-1-fluoro-12-(((2R,7aS)-2-fluorotetrahydro-1H-pyrrolizin-7a(5H)-yl)methoxy)-5-methyl-5a,6,7,8,9,10-hexahydro-5H-4-oxa-3,10a,11,13,14-pentaaza-6,9-methanonaphtho[1,8-ab]heptalen-2-yl)-4-(trifluoromethyl)aniline] | – | 0.57 | 15.8 |
| Cc1c(F)c(N)nc(-c2nc3c4c(nc(OC[C@@]56CCCN5C[C@H](F)C6)nc4c2F)N2C[C@H]4CC[C@H](N4)[C@H]2[C@H](C)O3)c1C(F)(F)F [Compound 191, 3-Fluoro-6-((5S,5aS,6S,9R)-1-fluoro-12-(((2R,7aS)-2-fluorotetrahydro-1H-pyrrolizin-7a(5H)-yl)methoxy)-5-methyl-5a,6,7,8,9,10-hexahydro-5H-4-oxa-3,10a,11,13,14-pentaaza-6,9-methanonaphtho[1,8-ab]heptalen-2-yl)-4-methyl-5-(trifluoromethyl)pyridin-2-amine] | 91.1 | 0.46 | – |
| Cc1c(F)c(O)cc(-c2nc3c4c(nc(OC[C@@]56CCCN5C[C@H](F)C6)nc4c2F)N2C[C@H]4CC[C@H](N4)[C@H]2[C@H](C)O3)c1C(F)(F)F [Compound 202, 2-Fluoro-5-((5S,5aS,6S,9R)-1-fluoro-12-(((2R,7aS)-2-fluorotetrahydro-1H-pyrrolizin-7a(5H)-yl)methoxy)-5-methyl-5a,6,7,8,9,10-hexahydro-5H-4-oxa-3,10a,11,13,14-pentaaza-6,9-methanonaphtho[1,8-ab]heptalen-2-yl)-3-methyl-4-(trifluoromethyl)phenol] | 214 | 1.98 | – |
| C[C@@H]1Oc2nc(-c3cc(N)nc(C(F)F)c3C(F)(F)F)c(F)c3nc(OC[C@@]45CCCN4C[C@H](F)C5)nc(c23)N2C[C@H]3CC[C@H](N3)[C@@H]12 [Compound 260, 6-(Difluoromethyl)-4-((5S,5aS,6S,9R)-1-fluoro-12-(((2R,7aS)-2-fluorotetrahydro-1H-pyrrolizin-7a(5H)-yl)methoxy)-5-methyl-5a,6,7,8,9,10-hexahydro-5H-4-oxa-3,10a,11,13,14-pentaaza-6,9-methanonaphtho[1,8-ab]heptalen-2-yl)-5-(trifluoromethyl)pyridin-2-amine] | 26.2 | 0.28 | – |
| Cc1nc(N)cc(-c2nc3c4c(nc(OCC5(CN6CCOC7(CC7)C6)CC5)nc4c2F)N2C[C@H]4CC[C@H](N4)[C@H]2[C@H](C)O3)c1C(F)(F)F [Compound 212, 4-((5S,5aS,6S,9R)-12-((1-((4-Oxa-7-azaspiro[2.5]octan-7-yl)methyl)cyclopropyl)methoxy)-1-fluoro-5-methyl-5a,6,7,8,9,10-hexahydro-5H-4-oxa-3,10a,11,13,14-pentaaza[6,9]methanonaphtho[1,8-ab]heptalene-2-yl)-6-methyl-5-(trifluoromethyl)pyridin-2-amine] | 39.1 | 0.56 | – |
| Cn1ncc2ccc(F)c(-c3nc4c5c(nc(OC[C@@]67CCCN6C[C@H](F)C7)nc5c3F)N3C[C@H]5CC[C@H](N5)[C@H]3CO4)c21 [Compound 4, (5aS,6S,9R)-1-fluoro-2-(6-fluoro-1-methyl-1H-indazol-7-yl)-12-(((2R,7aS)-2-fluorotetrahydro-1H-pyrrolizin-7a(5H)-yl)methoxy)-5a,6,7,8,9,10-hexahydro-5H-4-oxa-3,10a,11,13,14-pentaaza-6,9-methanonaphtho[1,8-ab]heptalene] | – | 899 | 9570 |
| Cc1nc(N)c(F)c(-c2nc3c4c(nc(OCC5(CN6CCOCC6)CC5)nc4c2F)N2C[C@H]4CC[C@H](N4)[C@H]2[C@H](C)O3)c1C(F)(F)F [Compound 219, 3-Fluoro-4-((5S,5aS,6S,9R)-1-fluoro-5-methyl-12-((1-(morpholinomethyl)cyclopropyl)methoxy)-5a,6,7,8,9,10-hexahydro-5H-4-oxa-3,10a,11,13,14-pentaaza-6,9-methanonaphtho[1,8-ab]heptalen-2-yl)-6-methyl-5-(trifluoromethyl)pyridin-2-amine] | 47.3 | 0.46 | – |
| C#Cc1cccc2cc(O)cc(-c3nc4c5c(nc(OC[C@@]67CCCN6C[C@H](F)C7)nc5c3F)N3C[C@H]5CC[C@H](CN5CCCF)[C@H]3CO4)c12 [Compound 50, 5-Ethynyl-4-((5aS,6R,9R)-1-fluoro-14-(3-fluoropropyl)-12-(((2R,7aS)-2-fluorotetrahydro-1H-pyrrolizin-7a(5H)-yl)methoxy)-5a,6,7,8,9,10-hexahydro-5H-4-oxa-3,10a,11,13,14-pentaaza-6,9-ethanonaphtho[1,8-ab]heptalen-2-yl)naphthalen-2-ol] | – | 0.24 | 1.69 |
| Cc1nc(N)cc(-c2nc3c4c(nc(OC[C@@]56CCCN5C[C@H](F)C6)nc4c2F)N2C[C@H]4CC[C@H](N4)[C@H]2[C@H](C)O3)c1CC(F)(F)F [Compound 185, 4-((5S,5aS,6S,9R)-1-Fluoro-12-(((2R,7aS)-2-fluorotetrahydro-1H-pyrrolizin-7a(5H)-yl)methoxy)-5-methyl-5a,6,7,8,9,10-hexahydro-5H-4-oxa-3,10a,11,13,14-pentaaza-6,9-methanonaphtho[1,8-ab]heptalene-2-yl)-6-methyl-5-(2,2,2-trifluoromethyl)pyridin-2-amine] | 107 | 1.1 | – |
| Cc1nc(N)cc(-c2nc3c4c(nc(OC[C@@]56CCCN5C[C@H](F)C6)nc4c2F)N2C[C@H]4CC[C@H](N4)[C@H]2[C@H](C)O3)c1C(F)(F)F [Compound 215, 4-((5S,5aS,6S,9R)-1-Fluoro-12-(((2R,7aS)-2-fluorotetrahydro-1H-pyrrolizin-7°(5H)-yl)methoxy)-5-methyl-5°,6,7,8,9,10-hexahydro-5H-4-oxa-3,10°,11,13,14-pentaaza-6,9-methanonaphtho[1,8-ab]heptalen-2-yl)-6-methyl-5-(trifluoromethyl)pyridin-2-amine] | 7.1 | 0.21 | – |
| Cc1c(F)c(N)cc(-c2nc3c4c(nc(OCC56CCN5CC(F)(F)C6)nc4c2F)N2C[C@H]4CC[C@H](N4)[C@H]2[C@H](C(F)(F)F)O3)c1C(F)(F)F (mixture of isomers) [Compound 244, 5-((5R,5aS,6S,9R)-12-((3,3-Difluoro-1-azabicyclo[3.2.0]heptan-5-yl)methoxy)-1-fluoro-5-(trifluoromethyl)-5a,6,7,8,9,10-hexahydro-5H-4-oxa-3,10a,11,13,14-pentaaza-6,9-methanonaphtho[1,8-ab]heptalene-2-yl)-2-fluoro-3-methyl-4-(trifluoromethyl)aniline] | 11.9 | 0.52 | – |
